Data reported in patent US8507464B2, “Phosphoramidate alkylator prodrugs” (Threshold Pharmaceuticals, Inc., priority 2005, dated 2013).
Where two headings read alike, the source gives them in different places.

How the values were obtained:
[1] = format: physicochemical; details: glassy carbon, Ag/AgCl reference; for Reduction Potentials, 10,000 mV/sec: scan rate 10,000 mV/sec
[2] = test system: NCI-H460 cells; experiment: Antiproliferation assay (Alamar Blue), anoxia vs air
[3] = test system: H460 cell line; experiment: Anti-proliferation assay, hypoxia vs normoxia (Table 1A); details: for IC50: Homo sapiens; for HCR P: ratio of IC50 in normoxia and hypoxia
[4] = test system: NCI-H460 cells; experiment: Antiproliferation assay - oxygen dependence; format: cell-based, human
Source text: . […] The calculated IC50 values (μM) are tabulated in Table Y1 (H460 cells) or Table Y2 (HT29 cells) below.

[5] = NCI-H460, read-out: Hypoxia P (proliferation IC50)
[6] = NCI-H460, read-out: Normoxia P (proliferation IC50)
[7] = Homo sapiens, NCI-H460, 2 h, read-out: IC50 H460 Air, air, 2 h exposure
[8] = Homo sapiens, NCI-H460, 2 h, read-out: IC50 H460 Anoxia, anoxia, 2 h exposure
[9] = Homo sapiens, NCI-H460, read-out: IC50 in H460 cells, 0.6% O2
[10] = Homo sapiens, NCI-H460, read-out: IC50 in H460 cells, Air
[11] = Homo sapiens, NCI-H460, read-out: IC50 in H460 cells, N2
[12] = Homo sapiens, NCI-H460; read-out: IC50 in H460 cells, Air

| SMILES | IC50 [3, 5] | IC50 [3, 6] | HCR P [3] | IC50 [2, 7] | IC50 [2, 8] | IC50 [4, 9] | also measured |
| --- | --- | --- | --- | --- | --- | --- | --- |
| Cc1csc(C(C)OP(=O)(NCCBr)NCCBr)c1[N+](=O)[O-] (stereo not drawn) [Compound 103] |  |  |  |  |  |  | Reduction Potentials, 10,000 mV/sec [1]: −756 mV; IC50 ([2]; read-out: IC50 H460 Air, air, 2 h exposure): 2 µM; IC50 ([2]; read-out: IC50 H460 Anoxia, anoxia, 2 h exposure): 0.02 µM |
| Cn1c(COc2ccc(COP(=O)(NCCCl)NCCCl)cc2F)cnc1[N+](=O)[O-] [Compound 27] | 2.5 µM | 100 µM | 40 | 100 µM |  |  |  |
| O=[N+]([O-])c1ncc[nH]1 [2-NO2-Imidazole, reference compound] |  |  |  |  |  |  | Reduction Potentials, 100 mV/sec ([1]; scan rate 100 mV/sec): −634 mV; Reduction Potentials, 10,000 mV/sec [1]: −693 mV |
| CC(C)N(CCCl)P(=O)(OCc1cnc([N+](=O)[O-])n1C)N(CCCl)C(C)C [Compound 14] | 8.5 µM | > 100 µM | >12 | > 100 µM | 8.5 µM |  |  |
| Cn1c([N+](=O)[O-])cnc1COc1ccc(COP(N)(=O)N(CCCl)CCCl)cc1 (stereo not drawn) [Compound S1] | > 40 µM | > 100 µM | >3 |  |  |  |  |
| COc1cc(COP(=O)(N(C)CCCl)N(C)CCCl)ccc1OCc1cnc([N+](=O)[O-])n1C [Compound 18] | 3.4 µM | 9 µM | 3 | 9 µM | 3.4 µM |  |  |
| Cn1c(COP(=O)(NCCCl)NCCCl)nc(Br)c1[N+](=O)[O-] [Compound 32] | 50 µM | 100 µM | 2 | 100 µM | 50 µM |  |  |
| O=[N+]([O-])c1cnc(-c2ccc(COP(=O)(NCCBr)NCCBr)cc2)s1 [Compound 63] |  |  |  | 8 µM | 1 µM | 15 µM | IC50 [4, 10]: 8 µM; IC50 [4, 11]: 1 µM |
| Cn1c([N+](=O)[O-])cnc1COc1ccc(COP(N)(=O)N(CCCl)CCCl)cc1F (stereo not drawn) [Compound 3] | > 20 µM | > 100 µM | >5 | > 100 µM | > 20 µM |  |  |
| O=[N+]([O-])c1ccc(COP(=O)(NCCOS(=O)(=O)c2ccccc2)NCCOS(=O)(=O)c2ccccc2)o1 [Compound 106] |  |  |  |  |  | 0.7 µM | IC50 [4, 12]: 4 µM; IC50 ([4]; Homo sapiens, NCI-H460; read-out: IC50 in H460 cells, N2): 0.1 µM; IC50 ([2]; Homo sapiens, NCI-H460, 2 h, read-out: IC50 H460 Air): 3.5 µM; IC50 ([2]; Homo sapiens, NCI-H460, 2 h, read-out: IC50 H460 Anoxia): 0.09 µM |
| CC(C)(OP(N)(=O)N(CCCl)CCCl)c1ccc([N+](=O)[O-])cc1 (stereo not drawn) [Compound 113] |  |  |  | ≥ 100 µM | 1 µM | > 100 µM | IC50 [4, 10]: > 100 µM; IC50 [4, 11]: 1 µM |
| C[C@H](CCl)NP(=O)(N[C@H](C)CCl)OCc1ccc(OCc2cnc([N+](=O)[O-])n2C)c(F)c1 [Compound 51] |  |  |  | 7 µM | 3 µM | 7 µM | IC50 [4, 12]: 7 µM |
| Cn1c(COP2(=O)N(CCCl)CCN2CCCl)cnc1[N+](=O)[O-] [Compound S2] | 7 µM | > 100 µM | >14 |  |  |  |  |
| O=[N+]([O-])c1ccc(COCOP(=O)(NCCCl)NCCCl)o1 [Compound 31] | 83 µM | > 100 µM | >1 | > 100 µM | 83 µM |  |  |
| CN(C)P(=O)(OCc1cnc([N+](=O)[O-])n1C)N(CCCl)CCCl (stereo not drawn) [Compound 4] | 40 µM | > 100 µM | >2 | > 100 µM | 40 µM |  |  |
| CC(C)[C@@H](CCl)NP(=O)(N[C@H](CCl)C(C)C)OCc1ccc([N+](=O)[O-])o1 [Compound 46] |  |  |  | > 100 µM | 5 µM | 50 µM | IC50 [4, 12]: 100 µM |
| Cn1c(COc2ccc(COP(N)(=O)N(CCCl)CCCl)cc2F)cnc1[N+](=O)[O-] (stereo not drawn) [Compound 22] | 0.7 µM | 16 µM | 23 | 16 µM | 0.7 µM |  |  |
| O=[N+]([O-])c1ccc(-c2ccc(COP(=O)(NCCBr)NCCBr)cc2)s1 [Compound 53] |  |  |  | 10 µM | 3 µM | 5 µM | IC50 [4, 10]: 10 µM |
| CCN(CCCl)P(=O)(OCc1cnc([N+](=O)[O-])n1C)N(CC)CCCl [Compound 15] | 0.08 µM | 1 µM | 12 | 1 µM | 0.08 µM |  |  |
| O=[N+]([O-])c1ccc(COP2(=O)N(CCBr)CCN2CCBr)o1 [Compound 109] |  |  |  | 13 µM | 0.3 µM | 10 µM | IC50 [4, 10]: 15 µM; IC50 [4, 11]: 0.3 µM |
